Reference: patent US20200061062A1, “INHIBITORS OF HUMAN PHOSPHATIDYLINOSITOL 3-KINASE DELTA” (ICOS Corporation, priority 2000, published 2020)

Key:
osteoclasts = assay: Osteoclast function, pit depths on dentine slices; format: cell-based, mouse
Protocol: To analyze the effect of the PI3Kδ inhibitor D-000 on osteoclasts, mouse bone marrow cells were isolated and differentiated them to osteoclasts by treating the cells with Macrophage Colony Stimulating Factor^−1 (mCSF^−1) and Osteoprotegerin Ligand (OPGL) in serum-containing medium (αMEM with 10% heat-inactivated FBS; Sigma) for 3 days. On day four, when the osteoclasts had developed, the medium was removed and cells were harvested. The osteoclasts were plated on dentine slices at 10^5 cells/well in growth medium, i.e., αMEM containing 1% serum and 2% BSA with […] and 10 ng/mL mCSF-1. After 3 hr, the medium was changed to 1% serum and 1% BSA, with or without osteopontin (25 μg/mL) and the PI3K inhibitors (100 nM). The medium was changed every 24 hours with fresh osteopontin and the inhibitors. At 72 hr, the medium was removed, and the dentine surfaces were washed with water to remove cell debris and stained with acid hematoxylin. Excess stain was washed and the pit depths were quantitated using confocal microscopy.

KU812 = assay: Cancer cell proliferation, [3H]-thymidine incorporation, KU812; format: cell-based; settings: Homo sapiens, 120 h; KU812 line; five days; read-out: EC50, inhibition of cell growth
Protocol: The effect of compounds of the invention on cancer cell proliferation was evaluated by testing one of the compounds against a panel of Chronic Myeloid Leukemia (CML) cell lines, including KU812, RWLeu4, K562, and MEG-01.
The inhibitory activity of the compound (D-000, dissolved in DMSO) was determined as follows. The tested compound was added in a series of concentrations (0.001 μM to 20 μM) to 96-well microtiter plates with cells (1000 to 5000 cells/well). Plates were incubated for five days at 37° C. during which the control cultures without test compound were able to undergo at least two cell-division cycles. Cell growth was measured by incorporation of [^3H]-thymidine for eighteen hours added at days three, four, and five. Cells were transferred to a filter, washed and the radioactivity counted using a Matrix 96 beta counter (Packard). The percentage of cell growth was measured as follows: […]

Which “Effect on osteoclast activity” value (osteoclasts; 100 nM) does the source give for `O=c1c2ccccc2nc(CSc2ncnc3[nH]cnc23)n1-c1ccccc1Cl` [Compound D-000, 3-(2-chlorophenyl)-2-(9H-purin-6-ylsulfanylmethyl)-3H-quinazolin-4-one] here?
The value was “almost completely inhibited”.

What about the “Pit depths (osteoclast activity), Table 1” value (osteoclasts; inhibitor 100 nM + osteopontin (OPN) 25 μg/mL, 72 hr, two experiments, OPN alone 10 ± 0.5 and 9 ± 0.4) of the same compound?
Its value is 1.

What about the EC50 (KU812) of the same compound?
Its EC50 is about 2 µM.
